Calls of active or inactive are those of the source.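 How the source made its calls: active means compounds giving half or more protection of infected cells from virus-caused growth loss, again on retest; inactive means the rest.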
System: CEM cells HIV-1 protection, formazan growth assay
Assay: NCI AIDS Antiviral Assay
Details: for IC50: measured here: growth of uninfected CEM cells
Procedure, shortened: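 Five concentrations of each compound were applied to infected and uninfected human CEM cells. Protection from HIV-1 was judged from growth measured with a soluble formazan assay.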

Compound	EC50 [µM]	IC50 [µM]	outcome
CCC12C=CCN3CCC4(c5cc(C(c6ccc(OC)cc6)c6cc7ccccc7n6S(=O)(=O)c6ccccc6)c(OC)cc5N(C)C4C(O)(C(=O)OC)C1OC(C)=O)C32 (stereo unspecified)	> 8.71	> 8.71	
Cc1ccc(S(=O)(=O)Nn2c(C)cc3ccc(S(=O)(=O)Nc4ccccc4[N+](=O)[O-])cc3c2=O)cc1	> 200	10.2	
Cc1cc(N(CCC#N)CCC#N)ccc1/C=C/C(=O)Nc1cccc(Cl)c1	> 66.1	> 66.1	
O=C1N=C(c2ccccc2)O/C1=C\c1ccccc1	> 200	> 200	
CCOC(CNCCC(=O)OC)OCC			inactive
COc1ccc(/C=c2/sc3n(c2=O)NC2(CCC(C)CC2)NN=3)cc1 (stereo unspecified)			inactive
C#CC(C)(C)OCCCCOc1cc(O)c2c(=O)c3ccccc3n(C)c2c1	> 3.8	> 3.8	
O=C(C[n+]1ccncc1)c1ccc2c(c1)CCCC2	0.0631	> 200	
N#CC(/C=C/c1ccccc1)NCCc1ccccc1 (stereo unspecified)	> 10.5	> 10.5	
OC(Cn1cncn1)(Cn1cncn1)c1ccc(Cl)cc1Cl	> 741	490	
CCOc1ccc(NCC(=O)N2CC(=O)Nc3ccccc32)cc1	> 22.4	> 22.4	
Cn1ccc2[nH]c(=O)[nH]c(=S)c21	> 200	> 200	
COC(=O)CCCN(C)c1n[nH]c(N)n1	> 200	> 200	
CCOC(=O)c1cn2c(ccc3sc4ccccc4c(=O)c32)n1	> 200	> 200	
COc1cc(OC)c(C2=NOC(n3c4ccccc4c4ccccc43)C2)c(OC)c1 (stereo unspecified)			inactive
Cc1cccc(-c2nnc3s/c(=C\c4ccc5c(c4)OCO5)c(=O)n23)c1	> 27.5	> 27.5	
COc1cc(O)c(C(=O)/C=C/c2ccccc2)c(O)c1C1C=C(C)CCC1C(C)C (stereo unspecified)			inactive
CC(CO)CCNc1ncnc2c1ncn2CCC#N (stereo unspecified)	> 200	> 200	
COC(=O)C(=O)C(C(=O)C(=O)Nc1cc(Cl)c(Cl)cc1Cl)c1nc2ccc([N+](=O)[O-])cc2[nH]c1=O (stereo unspecified)	> 457	95.5	
O=C(CC(NC(=O)OCc1ccccc1)C(=O)NC1Cc2ccccc2C1=O)OCc1ccccc1 (stereo unspecified)	> 200	> 200	
O=[N+]([O-])c1ccc(N/N=C/C(c2ccccc2)c2ccsc2)c([N+](=O)[O-])c1 (stereo unspecified)	> 200	19.5	
COC(=O)c1cc(C(=O)Nc2cc(Cc3cc(NC(=O)c4ccc(OC)c(C(=O)OC)c4)c(OC)c(C(=O)OC)c3)cc(C(=O)OC)c2OC)ccc1OC	> 200	> 200	
N#Cc1nc(CCN2C(=O)c3ccccc3C2=O)oc1N	> 200	> 200	

Compound	EC50 [µM]	IC50 [µM]	outcome
Clc1ccc(OCc2nnc3n2N=C(c2ccc(Br)cc2)CS3)cc1			inactive
CCc1cccc(C)c1NC(=O)CC1Sc2ccccc2NC1=O (stereo unspecified)	> 28.8	17.8	
O=C(O)CCNS(=O)(=O)c1ccc([N+](=O)[O-])cc1			inactive
COc1ccc(NC(=O)CC2SC(=Nc3ccc(Cl)cc3C)NC2=O)c([N+](=O)[O-])c1 (stereo unspecified)	> 398	> 398	
COc1ccc(-n2c(C)nc3ccc(N=Cc4ccccc4)cc3c2=O)cc1	> 200	> 200	
N#CC1=C(Cl)NC(Cl)=C(C#N)C1c1c(Cl)cccc1Cl	18.2	> 100	
CC(=O)NC(C)c1ccc(N=NN2CCCC2)cc1 (stereo unspecified)	> 200	79.4	
CC(C)(C)C1=CC(O)(c2c3ccccc3c(C3(O)C=C(C(C)(C)C)C(=O)C(C(C)(C)C)=C3)c3ccccc23)C=C(C(C)(C)C)C1=O	> 100	> 100	
O=C(O)Cc1cc(=O)[nH]c2c1/C(=N/O)CCC2			inactive
CC(C)(C)OC(=O)CN1CCN(CC(=O)N2CCN(C(=O)OCc3ccccc3)CC2)CCN(CC(=O)OC(C)(C)C)CCN(CC(=O)N2CCN(C(=O)OCc3ccccc3)CC2)CC1	> 100	1.29	
CCCCC=C(c1cc(Cl)c(OC)c(C(=O)OC)c1)c1cc(Cl)c(OC)c(C(=O)OC)c1	> 5.62	> 5.62	
O=C(O)CCC1CCc2cccc3occ1c23 (stereo unspecified)			inactive
O=C(Nn1c(-c2ccccc2)nc2ccccc2c1=O)c1ccccn1	> 200	123	
CC1=N/C(=C\c2ccc([N+](=O)[O-])cc2)C(=O)O1	> 155	> 155	
C#CCC(N)(CO)C(=O)O (stereo unspecified)			inactive
NC1=NS(=O)(=O)Nc2nn(-c3ccccc3)nc21	> 339	> 339	
C=CC1(C)CCC2C(=CCC3C(C)(COC4OC(CO)C(O)C(O)C4O)C(O)CCC23C)C1 (stereo unspecified)	> 200	> 100	
CCC(C)c1c(NC(C)=O)o[nH]c1=O (stereo unspecified)	> 200	> 200	
CC(=Nc1c2ccccc2nc2ccccc12)N(C)C	> 200	28.2	
O=C1CC(c2ccc[nH]2)=NN1c1ccccc1	> 200	83.2	
CCOC(=O)c1sc2nc(-c3ccccc3)nn2c1CBr	> 200	1.07	
O=c1[nH]nc(-c2ccccc2)n1-n1cccc1	> 200	97.7	

Reference: PubChem BioAssay AID179 (DTP/NCI, 2004)
